Common to all, as to type: cell-based
Assay [1] deals with T1, CquiOR114b-2 (co-expressed with CquiOrco) (Culex quinquefasciatus, UniProt A0A3G1CJJ8).
T1 construct: full length, 405 residues (longer C-terminus); pGEMHE, Xenopus oocytes co-expressing CquiOrco; with Odorant receptor coreceptor
T1 sequence (A0A3G1CJJ8 1-405): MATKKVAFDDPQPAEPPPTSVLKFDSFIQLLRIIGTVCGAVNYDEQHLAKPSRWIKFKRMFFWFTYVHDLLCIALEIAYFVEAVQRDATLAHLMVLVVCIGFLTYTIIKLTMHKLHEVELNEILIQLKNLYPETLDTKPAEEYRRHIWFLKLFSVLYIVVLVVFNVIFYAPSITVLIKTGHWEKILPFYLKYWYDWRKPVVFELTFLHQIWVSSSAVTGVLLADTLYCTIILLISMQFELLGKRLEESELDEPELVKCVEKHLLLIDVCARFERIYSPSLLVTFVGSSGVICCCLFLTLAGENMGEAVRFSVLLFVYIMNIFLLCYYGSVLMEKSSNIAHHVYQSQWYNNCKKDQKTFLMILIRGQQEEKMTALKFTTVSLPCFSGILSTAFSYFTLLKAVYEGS
The experiment in a line: two-electrode voltage clamp, Xenopus oocytes, current traces. To be noted: agonist current, 1 to 10 µM, enantiomer not stated. From the text:
two-electrode voltage clamp, Xenopus oocytes, current traces on CquiOR114b-2 (co-expressed with CquiOrco) | CquiOR114b-2 and CquiOrco (lower trace). Compounds were delivered in the following order | CquiOR114b-2 and CquiOrco (lower trace). Compounds were delivered in the following order: 1-octyn-3-ol
Background: Two-electrode voltage clamp is typically applied to oocytes expressing channels or transporters.

Assay [2] concerns the target T2, CquiOR114b-1 (co-expressed with CquiOrco) (Culex quinquefasciatus, UniProt A0A3G1CJK1).
T2 construct: full length, 405 residues (longer C-terminus); pGEMHE, Xenopus oocytes co-expressing CquiOrco; with Odorant receptor coreceptor
T2 sequence (A0A3G1CJK1 1-405): T1 sequence (A0A3G1CJJ8 1-405) with W63L, E122G, N129D
Described as above. To be noted: agonist current, 1 to 10 µM, enantiomer not stated.

For assay [3], the target named is T3, CquiOR118b (co-expressed with CquiOrco) (Culex quinquefasciatus, UniProt A0A3G1CJJ7).
T3 construct: full-length short version, 391 residues, shorter N-terminus than the VectorBase prediction CPIJ013954; pGEMHE, Xenopus oocytes co-expressing CquiOrco; with Odorant receptor coreceptor
T3 sequence (A0A3G1CJJ7 1-391): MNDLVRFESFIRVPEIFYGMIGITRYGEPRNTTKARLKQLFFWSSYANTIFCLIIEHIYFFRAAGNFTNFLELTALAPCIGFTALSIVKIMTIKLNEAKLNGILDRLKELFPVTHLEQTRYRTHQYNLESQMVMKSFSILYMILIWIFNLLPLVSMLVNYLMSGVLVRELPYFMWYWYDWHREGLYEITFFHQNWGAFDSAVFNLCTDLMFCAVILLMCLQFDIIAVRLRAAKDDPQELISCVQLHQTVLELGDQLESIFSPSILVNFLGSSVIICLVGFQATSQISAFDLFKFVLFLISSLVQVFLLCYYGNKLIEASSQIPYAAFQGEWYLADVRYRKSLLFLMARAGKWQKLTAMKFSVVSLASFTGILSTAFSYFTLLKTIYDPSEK
The experiment in a line: two-electrode voltage clamp, Xenopus oocytes, concentration-response. As to conditions: agonist current, 0.01, 0.1 and 1 µM, holding -80 to -70 mV.

The target of assay [4] is T2, CquiOR114b-1 (co-expressed with CquiOrco). The description is as above. As to conditions: agonist current, 1, 10 and 100 µM, holding -80 to -70 mV.

Positions count from the first letter of the chain named.

As to `C=CC(O)CCCCC` (centres unmarked) [1-octen-3-ol], the “two-electrode voltage clamp, Xenopus oocytes, current traces” value was “CquiOR114b-2 and CquiOrco (lower trace). Compounds were delivered in the following order” in assay [1]; “oocytes co-expressing CquiOR114b-1 and CquiOrco (top trace)” in assay [2]. For `C#CC(O)CCCCC` (centres unmarked) [1-octyn-3-ol], the “two-electrode voltage clamp, Xenopus oocytes, current traces” value in assay [1] was “CquiOR114b-2 and CquiOrco (lower trace). Compounds were delivered in the following order: 1-octyn-3-ol”; in assay [2], “oocytes co-expressing CquiOR114b-1 and CquiOrco (top trace)”. Regarding `CCCCCC(O)CC` (centres unmarked) [3-octanol], the “two-electrode voltage clamp, Xenopus oocytes, current traces” value is “CquiOR114b-2 and CquiOrco (lower trace). Compounds were delivered in the following order” in assay [1]; “oocytes co-expressing CquiOR114b-1 and CquiOrco (top trace)” in assay [2].

Consider `C=C[C@H](O)CCCCC` [(R)-1-octen-3-ol], for which the “two-electrode voltage clamp, Xenopus oocytes, concentration-response” value in assay [3] is on record as “robust responses were elicited by ( R)-1-octen-3-ol in a dose-dependent manner”; in assay [4], “currents elicited by ( R)-1-octen-3-ol were significantly lower than those obtained with its antipode”. In the case of `C#C[C@H](O)CCCCC` [(R)-1-octyn-3-ol], the “two-electrode voltage clamp, Xenopus oocytes, concentration-response” value in assay [3] is “CquiOR118b showed dramatic enantioselectivity towards ( R)-as compared to ( S)-1-octyn-3-ol”; in assay [4], “oocytes were challenged with enantiomers of 1-octen-3-ol, 1-octyn-3-ol, and 3-octanol”.

Turning to `CCCCC[C@H](O)CC` [(R)-3-octanol], the “two-electrode voltage clamp, Xenopus oocytes, concentration-response” value was “the responses to ( R)-3-octanol were relatively high” in assay [3]; “robust responses to 3-octanol, with responses to the ( R)- and ( S)-stereoisomers being almost indistinguishable” in assay [4].

Turning to `C=C[C@@H](O)CCCCC` [(S)-1-octen-3-ol], the “two-electrode voltage clamp, Xenopus oocytes, concentration-response” value is “currents generated by its antipode, ( S)-1-octen-3-ol, were relatively very small” in assay [3] and “significantly lower than those obtained with its antipode, ( S)-1-octen-3-ol” in assay [4]. Consider `C#C[C@@H](O)CCCCC` [(S)-1-octyn-3-ol], for which the “two-electrode voltage clamp, Xenopus oocytes, concentration-response” value in assay [3] was “CquiOR118b showed dramatic enantioselectivity towards ( R)-as compared to ( S)-1-octyn-3-ol”; in assay [4], “showed preference for ( S)-isomers of 1-octen-3-ol and 1-octyn-3-ol”.

For `CCCCC[C@@H](O)CC` [(S)-3-octanol], the “two-electrode voltage clamp, Xenopus oocytes, concentration-response” value in assay [4] is “robust responses to 3-octanol, with responses to the ( R)- and ( S)-stereoisomers being almost indistinguishable”.

The values above are taken from paper PMC4623779, “1-Octen-3-ol – the attractant that repels” (F1000Research, 2015).
